Results published in US6905698B1, “Particulate carrier for biocide formulations” (Ineos Silicas Limited, priority 1998, dated 2005).
Converted amounts (≈) assume the structure as drawn. Where two headings read alike, the source gives them in different places.

Tests used:
[1] = cited from earlier work
[2] = U.V. irradiation: biocide remaining
Method: (§1) The loaded biocides, together with the stock solutions, were spread on petri dishes and either placed in an incubator at 60° C. or exposed to U.V. irradiation in a Microscal unit (Miscoscal Limited, London) fitted with a 500 W high pressure mercury/tungsten lamp (wavelength>300 nm) operating at temperature 50° C. and a relative humidity in the region of 50%. […] Samples were withdrawn from the petri dishes undergoing thermal treatment and exposure to U.V. irradiation on a regular basis over a period in the region of 50 days. The amount of biocide remaining in each withdrawn sample was determined at the time of withdrawal using second derivative U.V.-visible Spectroscopy. The amount of biocide remaining in the stock solutions was determined by Gas Chromatography Mass Spectrometry. Relative peak heights corresponding to the residual parts of OIT, CIT and MIT were used to determine the concentrations of biocide in each sample.

[3] = Thermal ageing at 60° C.: biocide remaining; conditions: Thermal Ageing 60° C.
Method: as §1

[4] = system: standard mixed inoculum of BS 3900: Part G6: 1989 with Alternaria altarnata; assay: Prolonged protection on paint panels (BS 3900: Part G6: 1989); format: cell-based; conditions: weathered panels; for Fungal growth rating % Cover D28: Day 28; for Fungal growth rating % Cover D84: Day 84
Method: Candidate carrier materials dispersed in water borne acrylic emulsion paint were subjected to the procedure of BS 3900: Part G6: 1989 to assess their long term fungicidal efficiency when compared with the biocide added directly to the paint.
Masterboard panels (150 mm×150 mm) were brush coated on one side with the test paints (2 coats, 24 hours between coats) and cured at 60° C. for two days. The coated panels were then weathered in a QUV apparatus (The Q-Panel Co. Bolton, UK) under the following conditions: 125±5 hours exposure to UVA (340 nm) at 40° C. with 1 hour water spray at approximately 24 hour intervals (5 in total). During the water spray the temperature cools to about 20° C.
After weathering the panels were cut into two equal samples and subjected to the procedure described in BS 3900: Part G6:1989. The control paint was the test paint without biocide. Alternaria altarnata was included in the standard mixed inoculum of BS 3900: Part G6: 1989.
Visual examination of the panels was carried out after 28, 36 and 84 days. In accordance with the standard procedure, the percentage cover of each panel by fungal growth was assessed.
Following on from the observations of Example 4, the two carriers SD 2209 and SD 1866 loaded, at 30% by weight, with OIT and DCOIT were incorporated into the paint formulation specified in Example 4 and subjected to BS 3900: Part G6 as described in procedure (x) hereinbefore to assess their long term film fungicidal efficiency in comparison with OIT and DCOIT added directly to the paint.
Masterboard panels (150 mm×150 mm) were brush coated on one side with the test paints (2 coats, 24 hours between coats) and cured at 60° C. for two days. The coated panels were then weathered in a QUV apparatus as described hereinbefore in procedure (x). After weathering the panels were cut into two equal samples and subjected to the procedure described in BS 3900: Part G6: 1989. The panels were exposed for 28, 36, and 84 days, in accordance with the standard procedure, and the percentage cover of each panel by fungal growth was assessed at these stages.

[5] = system: Cladosporium cladosporioides; assay: Surface growth on painted discs after a further 14 days incubation; format: cell-based; conditions: biocide 300 ppm; for Zone of Inhibition After Leaching (surface of paint discs examined for growth): after water leaching
Method: To further distinguish performance the inoculated petri dishes containing the painted discs were incubated for a further 14 days so as to examine the extent of encroachment of the fungi into the surface of the paint film. The dishes were removed from the incubator and the surface of the paint discs examined for growth.

[6] = system: standard mixed inoculum of BS 3900: Part G6: 1989 with Alternaria altarnata; assay: Prolonged protection on paint panels (BS 3900: Part G6: 1989); format: cell-based; conditions: weathered panels
[7] = system: Cladosporium cladosporioides; assay: Water leaching of paint discs: zone of inhibition before and after 24 hours leach; format: cell-based; conditions: acrylic high build paint; for Zone of Inhibition After Leaching: 24 hours water leach
Method: The method allows an assessment of the level of protection afforded by incorporating a biocide into a paint formulation. Filter discs (Whatman International Limited, Maidstone, Kent), Type 54, hardened 42.5 mm diameter were brush painted on one side of the disc with the test paints (24 hours between coats, 3 replicates per paint) to give an average loading of 0.05 g dried paint. The painted discs were cured at 60° C. for 2 days. One set of discs is then washed with a large volume of distilled water (20 liters) under controlled flow for 24 hours at ambient temperatures.
A freeze dried ampoule of Cladosporium cladosporioides (strain no. FS33 ex. Paint Research Association, Teddington, UK) was revived on potato dextrose agar (Oxoid Limited, Basingstoke, UK). A spore innoculum was prepared from the resultant sporing culture (5-7 days growth at 25° C.) by adding 5 ml of sterile distilled water to the surface of the culture on the agar and gently rubbing the surface with a sterile loop to dislodge the spores' mycelium. The resultant suspension was filtered through sterile wool and the filtrate used to seed molten (45° C.) potato dextrose agar prior to pouring into sterile Petri dishes.
Each painted disc was placed on the surface of the seeded agar plate, and the plates placed in a fridge (6-8° C.) for 24 hours to allow diffusion of the biocide. After this period, they were transferred to an incubator at 25° C. for five days. The diameter of the disc, plus any zone of inhibition (no fungal growth) around the discs was measured. An average of the three replicates is taken as a data point.
The biocidal efficiency of the two carriers (SD 2209 and SD 1866) loaded, at 30% by weight, with OIT and DCOIT in the acrylic high build formulation was compared before, and after, a 24 hours leach using procedure (ix) described hereinbefore. The paints containing the biocide carrying particles and those where the biocide was incorporated as the free biocide where used in the example.

[8] = 50.98 %
Method: as §1

[9] = system: Aureobasidium pullulans; assay: Minimum Inhibition Concentration (MIC); format: cell-based
Method: The retention factor, R, referred to above is determined from the equation R=A/P, where A represents the percentage active ingredient by weight remaining in the pore system after contacting with water according to the conditions defined herein and P represents the potency (Minimum Inhibition Concentration in mg of active ingredient per liter) of the biocide determined with respect to the reference microorganism Aureobasidium pullulans using the procedure defined herein.
The usefulness of the inorganic carrier particle will depend on the particular biocide being used, its effectiveness at various activity levels and the quantity of biocide (active ingredient) adsorbed and retained in the pore system. […]
The minimum inhibition concentration (MIC) is a measure of the potency of a biocide and comprises the minimum concentration (ppm) of a biocide active or formulation (normally quoted in terms of the active ingredient) determined experimentally in vitro to prevent the growth of a pure culture of a reference microorganism. […]
A standardised culture of the microbe under lest is prepared. […] The concentration at which no growth is detected is the minimum inhibition concentration (MIC) for that particlar biocide and reference organism. […]

[10] = 50.98 %; remark: listed apart in the source
Method: as §1

SMILES | water solubility relative to OIT, in words [1] | amount of original biocide remaining (MIT, CIT, MIT/CIT) ([2]; 0 days) | amount of original biocide remaining (MIT, CIT, MIT/CIT) ([2]; 7 days) | amount of original biocide remaining (MIT, CIT, MIT/CIT) ([2]; 25 days) | amount of original biocide remaining (MIT, CIT, MIT/CIT) ([2]; 32 days) | amount of original biocide remaining (MIT, CIT, MIT/CIT) ([2]; 39 days) | amount of original biocide remaining (MIT, CIT, MIT/CIT) ([3]; 0 days) | amount of original biocide remaining (MIT, CIT, MIT/CIT) ([3]; 7 days) | amount of original biocide remaining (MIT, CIT, MIT/CIT) ([3]; 12 days) | amount of original biocide remaining (MIT, CIT, MIT/CIT) ([3]; 18 days) | Fungal growth rating % Cover D28 ([4]; biocide 300 ppm) [% cover] | Fungal growth rating % Cover D84 ([4]; biocide 300 ppm) [% cover] | Fungal growth rating % Cover D28 ([4]; biocide 1,200 ppm) [% cover] | Fungal growth rating % Cover D84 ([4]; biocide 1,200 ppm) [% cover] | Zone of Inhibition Before Leaching (surface of paint discs examined for growth) [5] | Zone of Inhibition After Leaching (surface of paint discs examined for growth) [5] | Fungal growth rating % Cover D56 ([6]; biocide 300 ppm) [% cover] | Fungal growth rating % Cover D56 ([6]; biocide 1,200 ppm) [% cover] | Zone of Inhibition Before Leaching ([7]; biocide 300 ppm) [mm] | Zone of Inhibition After Leaching ([7]; biocide 300 ppm) | further results
Cn1sc(Cl)cc1=O [CIT, 5-Chloro-2-Methyl-4-isothiazolin-3-one] | more water soluble than OIT | 100 | 0 | 0 | 0 | 0 | 100 | 80 | 40 | 30 |  |  |  |  |  |  |  |  |  |  | amount of original biocide remaining (MIT, CIT, MIT/CIT) ([3]; 26 days): 0
CCCCCCCCn1sc(Cl)c(Cl)c1=O [DCOIT, 4,5-Dichloro-2-Octyl-4-Isothiazolin-3-one] |  |  |  |  |  |  |  |  |  |  | 23 | 85 | 8 | 68 | None | Growth | 85 | 55 | 22 | OVERGROWTH | Fungal growth rating % Cover D28 ([4]; biocide 4,000 ppm): 0 % cover; Fungal growth rating % Cover D84 ([4]; biocide 4,000 ppm): 5 % cover; Fungal growth rating % Cover D56 ([6]; biocide 4,000 ppm): 0 % cover; Zone of Inhibition Before Leaching ([7]; biocide 1,200 ppm): 25 mm; Zone of Inhibition After Leaching ([7]; biocide 1,200 ppm): 1 mm; Zone of Inhibition Before Leaching ([7]; biocide 4,000 ppm): 38 mm; Zone of Inhibition After Leaching ([7]; biocide 4,000 ppm): 2 mm
Cn1sccc1=O [MIT, 2-Methyl-4-isothiazolin-3-one] | more water soluble than OIT | 100 | 78 | 69 | 62 | 50 | 100 | 95 | 90 | 80 |  |  |  |  |  |  |  |  |  |  | amount of original biocide remaining (MIT, CIT, MIT/CIT) ([2]; 55 days): 24; amount of original biocide remaining (MIT, CIT, MIT/CIT) ([3]; 40 days): 50
CCCCCCCCn1sccc1=O [OIT, 2-Octyl-4-Isothiazolin-3-one] |  |  |  |  |  |  |  |  |  |  | 35 | 85 | 3 | 35 | None | Growth | 85 | 35 | 32 | OVERGROWTH | Fungal growth rating % Cover D28 ([4]; biocide 1,400 ppm): 0 % cover; Fungal growth rating % Cover D84 ([4]; biocide 1,400 ppm): 5 % cover; amount of original biocide remaining (OIT) ([8]; 0 h): 100; amount of original biocide remaining (OIT) ([8]; 288 h): 78; amount of original biocide remaining (OIT) ([8]; 432 h): 65; amount of original biocide remaining (OIT) ([8]; 960 h): 50; Fungal growth rating % Cover D56 ([6]; biocide 1,400 ppm): 0 % cover; Zone of Inhibition Before Leaching ([7]; biocide 1,200 ppm): >42 mm; Zone of Inhibition After Leaching ([7]; biocide 1,200 ppm): 1 mm; Zone of Inhibition Before Leaching ([7]; biocide 4,000 ppm): >42 mm; Zone of Inhibition After Leaching ([7]; biocide 4,000 ppm): 1 mm; MIC ([9]; Aureobasidium pullulans, reference microorganism Aureobasidium pollulens): 36 µg/mL (≈ 169 µM); Minimum Inhibition Concentration (MIC) ([9]; reference microorganism Aureobasidium pullulans): 36 mg of active ingredient per liter; amount of original biocide remaining (OIT) ([10]; 0 h): 100; amount of original biocide remaining (OIT) ([10]; 336 h): 17; amount of original biocide remaining (OIT) ([10]; 1008 h): 1
